This experiment is described as follows: EGFP reporter destabilization counter-screen – F442A EGFP cells, fluorescence, counter-screen for p/CIP destabilizer project, dose response (AID 2005).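 Note: cells express EGFP alone from a CMV promoter as a counter screen for p/CIP-EGFP.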 The following applies: F442A EGFP cells, EGFP fluorescence, 16 h, stronger effect = higher value. In general terms: A counterscreen serves to expose hits that act by an unwanted route or on another target.

Active and inactive are the calls of the source.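 Rule for the calls: active = plate Z score at or below -3, or inhibition of at least 30% at 20 µM; inactive = the rest.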

In general, inhibition refers to the change of the read-out against control, counted positive when it falls.

Regarding `CCOCCCNC(=O)c1cc2c(=O)n3cccc(C)c3nc2s1`, the inhibition by setting is: (EGFP decrease, at 10 µM) -2.1%; (at 20 µM) 12.9% (inactive).

Consider `N/C(=N\OC(=O)c1ccc(Cl)cc1Cl)c1ccccc1`, for which the inhibition by setting is: (EGFP decrease, at 10 µM) 10.4%; (at 20 µM) 1.3% (inactive).

For the compound `O=C(N/N=C\c1ccc2c(c1)OCO2)c1cncc(Br)c1`, the inhibition was 6.5% (EGFP decrease, at 10 µM) and 7.3% (inactive) (at 20 µM).

Regarding `O[C@@H](CNC[C@H](O)c1ccccc1)c1ccccc1`, the inhibition was 28% (EGFP decrease, at 10 µM) and -10.9% (inactive) (at 20 µM).

For the compound `O=C(CC12CC3CC(CC(C3)C1)C2)NCCN1CCOCC1`, the inhibition (EGFP decrease, at 10 µM) amounted to 9.3% and the inhibition (at 20 µM) was 25.4% (inactive).

With `C=CCc1cccc2cc(C(=O)NC)c(=O)oc12`, the inhibition was 12.9% (EGFP decrease, at 10 µM) and 30.8% (at 20 µM).

With `CN(C(=O)c1ccc2c(c1)CCN2S(C)(=O)=O)c1ccccc1`, the inhibition runs as follows: (EGFP decrease, at 10 µM) -5.5%; (at 20 µM) -19.7% (inactive).

Consider `CCCC(=O)c1c[nH]c(C(=O)NCCc2ccccn2)c1`, for which the inhibition was 20.5% (EGFP decrease, at 10 µM) and 29.1% (inactive) (at 20 µM).

As for `COC(=O)c1c(NC(=O)c2ccc(C)cc2)sc(Cc2ccccc2)c1C`, the inhibition is 29.9% (EGFP decrease, at 10 µM) and -2.4% (inactive) (at 20 µM).

For `Cc1cccc(C)c1OCc1cc(C(=O)N2CCCC2c2nonc2C)no1` (stereo not given), the inhibition was 17.2% (EGFP decrease, at 10 µM) and 11.5% (inactive) (at 20 µM).

Consider `CCc1ccc(NC(=S)N2CCC(NC(=O)c3ccccc3OC)CC2)cc1`, for which the inhibition (EGFP decrease, at 10 µM) was -7.8% and the inhibition (at 20 µM) is 5.4% (inactive).

Consider `CC(=O)c1ccc(NC(=O)NNS(=O)(=O)c2ccc([N+](=O)[O-])cc2)cc1`, for which the inhibition is, setting by setting: (EGFP decrease, at 10 µM) 16.8%; (at 20 µM) 22.1% (inactive).

`COC(=O)c1ccc(-c2ccc(CNCC(O)c3ccccc3)o2)cc1` (stereo not given): the inhibition is, setting by setting: (EGFP decrease, at 10 µM) 8.8%; (at 20 µM) 7.1% (inactive).

Regarding `O=C1C(=O)c2ccc(-c3ccccc3)cc2-c2ccccc21`, the inhibition is, setting by setting: (EGFP decrease, at 10 µM) -14.4%; (at 20 µM) 2.4% (inactive).

For `COc1ccc(OC)c(Nc2cc(C)c3ccccc3n2)c1`, the inhibition (EGFP decrease, at 10 µM) was 13.3% and the inhibition (at 20 µM) was 5.4% (inactive).

In the case of `O=C(Oc1ccccc1-c1nnco1)c1ccccc1`, the inhibition reads like this: (EGFP decrease, at 10 µM) 31%; (at 20 µM) -29.2% (inactive).

For `Cn1c(NC(=O)c2cccnc2)nc2ccccc21`, the inhibition is, setting by setting: (EGFP decrease, at 10 µM) -33.6%; (at 20 µM) -0.5% (inactive).

Take `COc1ccccc1C(=O)NC(CCSC)C(=O)NC1CCCCCC1` (stereo not given): the inhibition is 17.2% (EGFP decrease, at 10 µM) and 29.7% (inactive) (at 20 µM).

With `Cc1cc(N2C(=O)C(O)=C(C(=O)c3ccco3)C2c2ccc([N+](=O)[O-])cc2)no1` (stereo not given), the inhibition is 39.5% (EGFP decrease, at 10 µM) and 4.5% (inactive) (at 20 µM).

For `COc1ccc(CNC2CCCCC2)cc1`, the inhibition was 26% (EGFP decrease, at 10 µM) and 20.4% (inactive) (at 20 µM).

`CCOC(=O)C1=C(N)Oc2cc(C)oc(=O)c2C12C(=O)N1c3c(cc(OC)cc32)C(C)=CC1(C)C` (stereo not given): the inhibition (EGFP decrease, at 10 µM) was -0.3% and the inhibition (at 20 µM) was 5.1% (inactive).

Consider `Cc1cccc2cc(CN(Cc3ccc(F)cc3)Cc3nnnn3C3CCCC3)c(=O)[nH]c12`, for which the inhibition reads like this: (EGFP decrease, at 10 µM) 13.4%; (at 20 µM) 6.5% (inactive).

Consider `Cc1onc(-c2ccccc2)c1C(=O)OCC(=O)Nc1cc(S(=O)(=O)N2CCOCC2)ccc1Cl`, for which the inhibition (EGFP decrease, at 10 µM) was found to be 13.9% and the inhibition (at 20 µM) is 19.6% (inactive).

For `CC(C)(C)n1nc2c(c1NC(=O)c1cc(Cl)ccc1[N+](=O)[O-])CS(=O)(=O)C2`, the inhibition by setting is: (EGFP decrease, at 10 µM) 10.5%; (at 20 µM) 22.6% (inactive).

Regarding `CC(Oc1ccc(Cl)cc1)C(=O)NCC1CCCO1` (stereo not given), the inhibition is 20.8% (EGFP decrease, at 10 µM) and -7.4% (inactive) (at 20 µM).

In the case of `O=C(c1ccc(F)cc1)C1CCN(C(=O)c2c(F)cccc2F)CC1`, the inhibition is, setting by setting: (EGFP decrease, at 10 µM) 12.9%; (at 20 µM) 13.5% (inactive).

Turning to `N#Cc1cc(F)c(N2CCNCC2)cc1Cl`, the inhibition (EGFP decrease, at 10 µM) turned out to be 13.5% and the inhibition (at 20 µM) was 6.7% (inactive).

Regarding `O=C(Cn1c(=O)[nH]c2ccccc2c1=O)N1CCN(c2cccc(Cl)c2)CC1`, the inhibition was 17.8% (EGFP decrease, at 10 µM) and 20.5% (inactive) (at 20 µM).

As for `COc1ccc(-c2cc(C(F)(F)F)nc(N3CCN(C)CC3)n2)cc1OC`, the inhibition is 8.9% (EGFP decrease, at 10 µM) and 8% (inactive) (at 20 µM).

`Nc1cc(=O)[nH]c(SCC(=O)Nc2cccnc2Cl)n1`: the inhibition by setting is: (EGFP decrease, at 10 µM) 18.4%; (at 20 µM) -7.6% (inactive).

In the case of `CCOc1ccc(N(CC(=O)Nc2cccc(Br)c2)S(C)(=O)=O)cc1`, the inhibition by setting is: (EGFP decrease, at 10 µM) 36.5%; (at 20 µM) 12.4% (inactive).

Consider `COc1ccc(CNC(=O)C(C)Cc2ccccc2)cc1O` (stereo not given), for which the inhibition by setting is: (EGFP decrease, at 10 µM) 24.1%; (at 20 µM) 14.7% (inactive).

For the compound `CC(C)CN(C(=O)c1cccc(F)c1)c1c(N)n(CC(C)C)c(=O)[nH]c1=O`, the inhibition by setting is: (EGFP decrease, at 10 µM) 32.3%; (at 20 µM) 18.5% (inactive).

Take `COC(=O)Cn1cc(C(=O)c2cccs2)c2ccccc21`: the inhibition was 27.1% (EGFP decrease, at 10 µM) and 14.5% (inactive) (at 20 µM).

`CC(OC(=O)C1CSC2(c3ccc(F)cc3)CCC(=O)N12)C(=O)NC(N)=O` (stereo not given): the inhibition (EGFP decrease, at 10 µM) was 48.2% and the inhibition (at 20 µM) is -5.1% (inactive).

For the compound `Cn1ncnc2c(=O)n(C)c(=O)nc1-2`, the inhibition by setting is: (EGFP decrease, at 10 µM) 49.3%; (at 20 µM) 61.7%.

Consider `Cc1ccc(NC(=O)C(NS(=O)(=O)c2cccc3nsnc23)C(C)C)nc1` (stereo not given), for which the inhibition is, setting by setting: (EGFP decrease, at 10 µM) 34.6%; (at 20 µM) 21.7% (inactive).

For the compound `COc1cccc(-c2nc(CS(=O)CC(=O)NCc3ccccc3)c(C)o2)c1` (stereo not given), the inhibition is 19.6% (EGFP decrease, at 10 µM) and -13.3% (inactive) (at 20 µM).

Turning to `O=C(O)[C@@H]1CCCN1c1ncnc2sc3c(c12)CCC3`, the inhibition (EGFP decrease, at 10 µM) came out at 0.9% and the inhibition (at 20 µM) was 31.1%.

For `Cc1cc(NC(=O)CSCC(=O)OCc2nnc(-c3ccccc3)o2)no1`, the inhibition was -7.9% (EGFP decrease, at 10 µM) and -12.8% (inactive) (at 20 µM).

Consider `Cc1ccc(-c2nc(-c3cccnc3)no2)c(C)c1`, for which the inhibition reads like this: (EGFP decrease, at 10 µM) 18.1%; (at 20 µM) 31.1%.

Consider `CC(C)c1ccc(NC(=S)NN2C(C)CCCC2C)cc1` (stereo not given), for which the inhibition is, setting by setting: (EGFP decrease, at 10 µM) 8.5%; (at 20 µM) 0.8% (inactive).

As to `O=C(Nc1nc(-c2ccccc2)cs1)C1CCCCN1S(=O)(=O)c1ccccc1` (stereo not given), the inhibition by setting is: (EGFP decrease, at 10 µM) 15%; (at 20 µM) 8.6% (inactive).

In the case of `COC(=O)c1sc(NC(=O)CSc2nnnn2-c2cccc(OC)c2)nc1C`, the inhibition is 34.2% (EGFP decrease, at 10 µM) and 13.2% (inactive) (at 20 µM).

With `COc1ccccc1N1CCN(CC(O)COCc2cccs2)CC1` (stereo not given), the inhibition (EGFP decrease, at 10 µM) was 16.3% and the inhibition (at 20 µM) was 8% (inactive).

`CC(NC(=O)CN(C)CC(=O)Nc1ccc(F)c(F)c1F)c1ccccc1` (stereo not given): the inhibition reads like this: (EGFP decrease, at 10 µM) 8%; (at 20 µM) -8.6% (inactive).

For `Cc1ccc(S(=O)(=O)CCSc2nc(C)cc(C(F)(F)F)c2C#N)cc1`, the inhibition runs as follows: (EGFP decrease, at 10 µM) -55.8%; (at 20 µM) -128% (inactive).

For the compound `CC1(C)C(=O)Nc2ccccc2N1C(=O)COc1ncnc2c(Cl)cc(Cl)cc12`, the inhibition reads like this: (EGFP decrease, at 10 µM) 18.4%; (at 20 µM) 17.9% (inactive).

For `COc1cccc2cc(C(C)=O)c(=O)oc12`, the inhibition is, setting by setting: (EGFP decrease, at 10 µM) 33.2%; (at 20 µM) 24.2% (inactive).

With `C=CCC(NCc1ccco1)c1ccc(OC)cc1OC` (stereo not given), the inhibition (EGFP decrease, at 10 µM) is 22.1% and the inhibition (at 20 µM) was -5.4% (inactive).

As for `CCOc1ccc(NC(=O)/C(=C\c2ccc(OC(C)=O)c(OC)c2)NC(C)=O)cc1`, the inhibition was 1.3% (EGFP decrease, at 10 µM) and -16.6% (inactive) (at 20 µM).

For `O=c1nc2n(c3ccc([N+](=O)[O-])cc13)CCCCC2`, the inhibition (EGFP decrease, at 10 µM) is 39% and the inhibition (at 20 µM) is 29.5% (inactive).

For `Cc1ccc(CNC(=O)C2CCCCN2S(=O)(=O)c2ccccc2)cc1` (stereo not given), the inhibition by setting is: (EGFP decrease, at 10 µM) -17.4%; (at 20 µM) 4.6% (inactive).

`Nc1ccc2nc(-c3ccc(-c4nc5ccc(N)cc5[nH]4)cc3)[nH]c2c1`: the inhibition was 15.4% (EGFP decrease, at 10 µM) and 25% (inactive) (at 20 µM).

For the compound `COc1ccccc1NC(=S)NNC(=O)c1ccc(Cl)cc1Cl`, the inhibition reads like this: (EGFP decrease, at 10 µM) -23.9%; (at 20 µM) 2% (inactive).

On to `CC(OC(=O)C1CC1)C(=O)Nc1ccc([N+](=O)[O-])cc1Cl` (stereo not given), for which the inhibition runs as follows: (EGFP decrease, at 10 µM) 14.2%; (at 20 µM) 3.9% (inactive).

Regarding `COc1ccc(CC(=O)OC(C)C(=O)c2ccc(C)cc2)cc1` (stereo not given), the inhibition is, setting by setting: (EGFP decrease, at 10 µM) 32%; (at 20 µM) 25.4% (inactive).

`CCCCCCn1c(=O)c(C(=O)Nc2cccc(C)n2)c(O)c2ccccc21`: the inhibition is 26.7% (EGFP decrease, at 10 µM) and 20.6% (inactive) (at 20 µM).

With `O=C(NC1=NCCS1)c1ccc(N2CCCC2=O)cc1`, the inhibition (EGFP decrease, at 10 µM) was -10.3% and the inhibition (at 20 µM) is -1.1% (inactive).

In the case of `Cc1nc2c(=O)n(C)c(=O)nc-2n(C)n1`, the inhibition was 54.2% (EGFP decrease, at 10 µM) and 34.4% (at 20 µM).

As to `CS(=O)(=O)c1ccc(S(=O)CC(=O)OCc2ccccc2)c([N+](=O)[O-])c1` (stereo not given), the inhibition by setting is: (EGFP decrease, at 10 µM) 16%; (at 20 µM) -0.6% (inactive).

`Cc1ccccc1NC(=O)C1CCCN(C(=O)Nc2ccc(F)cc2)C1` (stereo not given): the inhibition was 12.3% (EGFP decrease, at 10 µM) and 3.2% (inactive) (at 20 µM).

With `COc1ccc(/C=C/C2=NN(Cc3ccccc3)C(=O)CC2)cc1`, the inhibition is, setting by setting: (EGFP decrease, at 10 µM) 28.1%; (at 20 µM) 18.7% (inactive).

On to `COC(=O)[C@@H](Cc1c[nH]c2ccccc12)NC(=O)C1CCCN(S(=O)(=O)c2ccc(C)cc2)C1` (stereo not given in full), for which the inhibition by setting is: (EGFP decrease, at 10 µM) -7.3%; (at 20 µM) 19.7% (inactive).

In the case of `CCC(C(=O)NC1CCCCCC1)n1nc(C)n2c(cc3occc32)c1=O` (stereo not given), the inhibition reads like this: (EGFP decrease, at 10 µM) 2.6%; (at 20 µM) 5.5% (inactive).
